Patent US20100092526A1, “NANOEMULSION THERAPEUTIC COMPOSITIONS AND METHODS OF USING THE SAME” (NanoBio Corporation, priority 2008, published 2010)
≈ marks a conversion by molar mass, not a printed value. Where “and” joins values, the source holds several entries; their conditions need not be identical. Equal entries are not always repeated.

Test system: methicillin-resistant Staphylococcus aureus (MRSA)
Experiment: Susceptibility (MIC/MBC) of MRSA clinical isolates
Assay type: cell-based
Conditions: for MBC50(15) / MIC50(15) / MBC90(26) / MIC90(26): 29 MRSA clinical isolates; for MBC50(15) / MIC50(15): rank 15; for MBC90(26) / MIC90(26): rank 26; for MBC / MIC: individual MRSA clinical isolates, values listed by rank order 1-29

Row | Structure (SMILES) | MBC50(15) [µg/mL] | MIC50(15) [µg/mL] | MBC90(26) [µg/mL] | MIC90(26) [µg/mL] | MBC | MIC | isolates resistant (MRSA isolates) [%] | MIC90 (Staphylococcus aureus, MRSA isolates, read-out: MIC90) [µg/mL]
1 | C[C@H]1c2cccc(O)c2C(=O)C2=C(O)[C@]3(O)C(=O)C(C(N)=O)=C(O)[C@@H](N(C)C)[C@@H]3[C@@H](O)[C@@H]21 [Dox] | >4 | 0.25 (≈ 0.563 µM) | >64 | 4 (≈ 9 µM) | >128 μg/ml and >64 μg/ml (4×) and >4 μg/ml (21×) and 2 μg/ml and 1 μg/ml (2×) | 4 μg/ml (4×) and 0.25 μg/ml (25×) | – | –
2 | C/C(=C\C(=O)OCCCCCCCCC(=O)O)C[C@@H]1OC[C@H](C[C@@H]2O[C@H]2[C@@H](C)[C@H](C)O)[C@@H](O)[C@H]1O [Mupirocin, mupirocin] | – | – | – | – | – | – | 31 | –
3 | CN[C@H](CC(C)C)C(=O)N[C@H]1C(=O)N[C@@H](CC(N)=O)C(=O)N[C@H]2C(=O)N[C@H]3C(=O)N[C@H](C(=O)N[C@H](C(=O)O)c4cc(O)cc(O)c4-c4cc3ccc4O)[C@H](O)c3ccc(c(Cl)c3)Oc3cc2cc(c3O[C@@H]2O[C@H](CO)[C@@H](O)[C@H](O)[C@H]2O[C@H]2C[C@](C)(N)[C@H](O)[C@H](C)O2)Oc2ccc(cc2Cl)[C@H]1O [Vanco] | 1 (≈ 0.69 µM) | 1 (≈ 0.69 µM) | 2 (≈ 1.38 µM) | 1 (≈ 0.69 µM) | 4 μg/ml (3×) and 2 μg/ml (7×) and 1 μg/ml (16×) and 0.5 μg/ml (3×) | 2 μg/ml and 1 μg/ml (20×) and 0.5 μg/ml (8×) | – | –
4 | COc1cc(Cc2cnc(N)nc2N)cc(OC)c1OC [Trim] | 0.5 (≈ 1.72 µM) | 0.125 (≈ 0.431 µM) | >4 | 0.5 (≈ 1.72 µM) | >64 μg/ml and >16 μg/ml (2×) and >4 μg/ml and >2 μg/ml (3×) and 4 μg/ml and 2 μg/ml (3×) and 1 μg/ml (2×) and 0.5 μg/ml (5×) and 0.25 μg/ml (6×) and 0.125 μg/ml (4×) and 0.0125 μg/ml | >64 μg/ml and 1 μg/ml (2×) and 0.5 μg/ml and 0.25 μg/ml and 0.125 μg/ml (24×) | – | –
5 | COc1cc(Cc2cnc(N)nc2N)cc(OC)c1OC [trimethoprim] | – | – | – | – | – | – | – | 0.5 (≈ 1.72 µM)
6 | C[C@H]1COc2c(N3CCN(C)CC3)c(F)cc3c(=O)c(C(=O)O)cn1c23 [Levo] | 16 (≈ 44.3 µM) | 8 (≈ 22.1 µM) | >64 | 32 (≈ 88.6 µM) | >64 μg/ml (6×) and 64 μg/ml (2×) and >32 μg/ml and 32 μg/ml (5×) and 16 μg/ml (3×) and 8 μg/ml (4×) and 4 μg/ml and 1 μg/ml and 0.5 μg/ml and 0.25 μg/ml (5×) | >64 μg/ml (2×) and 32 μg/ml (5×) and 16 μg/ml (4×) and 8 μg/ml (5×) and 4 μg/ml (5×) and 2 μg/ml and 0.5 μg/ml and 0.25 μg/ml (3×) and 0.125 μg/ml (3×) | – | –
